{
  "source": "the NIST ThermoML archive (doi:10.1021/je8001128)",
  "key": {"[1]": {"settings": "298.15 K; 101 kPa; Liquid"}, "[2]": {"assay": "wn = mass fraction of the nth substance listed", "settings": "298.15 K, 101 kPa, Liquid"}},
  "note": "Numbers after ± are expanded uncertainties.",
  "data": [
    {"molecule": "CCCCn1cc[n+](C)c1.F[B-](F)(F)F", "note": "[1-butyl-3-methylimidazolium tetrafluoroborate]", "values": [
      {"measurement": "mass density", "setting": "[1]", "value": "1211.05 ± 8.6", "unit": "kg/m3"},
      {"measurement": "viscosity", "setting": "[1]", "value": "110.3 ± 6.6", "unit": "mPa·s"}
    ]},
    {"molecule": "CCCCn1cc[n+](C)c1.F[B-](F)(F)F", "note": "[1-butyl-3-methylimidazolium tetrafluoroborate] + CC(C)=O", "values": [
      {"measurement": "mass density", "setting": "[2]; w1 = 0.1724", "value": "846.15 ± 0.96", "unit": "kg/m3"},
      {"measurement": "viscosity", "setting": "[2]; w1 = 0.1724", "value": "0.5 ± 0.1", "unit": "mPa·s"},
      {"measurement": "mass density", "setting": "[2]; w1 = 0.3033", "value": "894.39 ± 1.2", "unit": "kg/m3"},
      {"measurement": "viscosity", "setting": "[2]; w1 = 0.3033", "value": "0.7 ± 0.1", "unit": "mPa·s"},
      {"measurement": "mass density", "setting": "[2]; w1 = 0.495", "value": "970.29 ± 2", "unit": "kg/m3"},
      {"measurement": "viscosity", "setting": "[2]; w1 = 0.495", "value": "1.5 ± 0.1", "unit": "mPa·s"},
      {"measurement": "mass density", "setting": "[2]; w1 = 0.6276", "value": "1026.98 ± 3", "unit": "kg/m3"},
      {"measurement": "viscosity", "setting": "[2]; w1 = 0.6276", "value": "3 ± 0.1", "unit": "mPa·s"},
      {"measurement": "mass density", "setting": "[2]; w1 = 0.677", "value": "1048.91 ± 3.5", "unit": "kg/m3"},
      {"measurement": "viscosity", "setting": "[2]; w1 = 0.677", "value": "4 ± 0.1", "unit": "mPa·s"},
      {"measurement": "mass density", "setting": "[2]; w1 = 0.7197", "value": "1068.29 ± 4", "unit": "kg/m3"},
      {"measurement": "viscosity", "setting": "[2]; w1 = 0.7197", "value": "5.2 ± 0.2", "unit": "mPa·s"},
      {"measurement": "mass density", "setting": "[2]; w1 = 0.7603", "value": "1086.16 ± 4.4", "unit": "kg/m3"},
      {"measurement": "viscosity", "setting": "[2]; w1 = 0.7603", "value": "6.9 ± 0.2", "unit": "mPa·s"},
      {"measurement": "mass density", "setting": "[2]; w1 = 0.7933", "value": "1102.46 ± 4.9", "unit": "kg/m3"},
      {"measurement": "viscosity", "setting": "[2]; w1 = 0.7933", "value": "9 ± 0.3", "unit": "mPa·s"},
      {"measurement": "mass density", "setting": "[2]; w1 = 0.8267", "value": "1118.43 ± 5.4", "unit": "kg/m3"},
      {"measurement": "viscosity", "setting": "[2]; w1 = 0.8267", "value": "12 ± 0.3", "unit": "mPa·s"},
      {"measurement": "mass density", "setting": "[2]; w1 = 0.8536", "value": "1131.38 ± 5.8", "unit": "kg/m3"},
      {"measurement": "viscosity", "setting": "[2]; w1 = 0.8536", "value": "15.1 ± 0.4", "unit": "mPa·s"},
      {"measurement": "mass density", "setting": "[2]; w1 = 0.9024", "value": "1155.29 ± 6.6", "unit": "kg/m3"},
      {"measurement": "viscosity", "setting": "[2]; w1 = 0.9024", "value": "25.5 ± 0.7", "unit": "mPa·s"},
      {"measurement": "mass density", "setting": "[2]; w1 = 0.939", "value": "1174.32 ± 7.2", "unit": "kg/m3"},
      {"measurement": "viscosity", "setting": "[2]; w1 = 0.939", "value": "40.1 ± 1.2", "unit": "mPa·s"},
      {"measurement": "mass density", "setting": "[2]; w1 = 0.9707", "value": "1193.01 ± 7.9", "unit": "kg/m3"},
      {"measurement": "viscosity", "setting": "[2]; w1 = 0.9707", "value": "64.7 ± 2", "unit": "mPa·s"},
      {"measurement": "mass density", "setting": "[2]; w1 = 1", "value": "1211.05 ± 8.6", "unit": "kg/m3"},
      {"measurement": "viscosity", "setting": "[2]; w1 = 1", "value": "110.3 ± 6.6", "unit": "mPa·s"}
    ]},
    {"molecule": "CCCCn1cc[n+](C)c1.F[B-](F)(F)F", "note": "[1-butyl-3-methylimidazolium tetrafluoroborate] + CCOC=O", "values": [
      {"measurement": "mass density", "setting": "[2]; w1 = 1", "value": "1211.05 ± 8.6", "unit": "kg/m3"},
      {"measurement": "viscosity", "setting": "[2]; w1 = 1", "value": "110.3 ± 6.6", "unit": "mPa·s"}
    ]},
    {"molecule": "CCCCn1cc[n+](C)c1.F[B-](F)(F)F", "note": "[1-butyl-3-methylimidazolium tetrafluoroborate] + COC(C)=O", "values": [
      {"measurement": "mass density", "setting": "[2]; w1 = 1", "value": "1211.05 ± 8.6", "unit": "kg/m3"},
      {"measurement": "viscosity", "setting": "[2]; w1 = 1", "value": "110.3 ± 6.6", "unit": "mPa·s"}
    ]},
    {"molecule": "CCCCn1cc[n+](C)c1.F[B-](F)(F)F", "note": "[1-butyl-3-methylimidazolium tetrafluoroborate] + COC=O", "values": [
      {"measurement": "mass density", "setting": "[2]; w1 = 1", "value": "1211.05 ± 8.6", "unit": "kg/m3"},
      {"measurement": "viscosity", "setting": "[2]; w1 = 1", "value": "110.3 ± 6.6", "unit": "mPa·s"}
    ]},
    {"molecule": "CC(C)=O", "note": "[acetone]", "values": [
      {"measurement": "mass density", "setting": "[1]", "value": "785.36 ± 0.81", "unit": "kg/m3"},
      {"measurement": "viscosity", "setting": "[1]", "value": "0.3 ± 0.1", "unit": "mPa·s"}
    ]},
    {"molecule": "CC(C)=O", "note": "[acetone] + CCCCn1cc[n+](C)c1.F[B-](F)(F)F", "values": [
      {"measurement": "mass density", "setting": "[2]; w2 = 0", "value": "785.36 ± 0.81", "unit": "kg/m3"},
      {"measurement": "viscosity", "setting": "[2]; w2 = 0", "value": "0.3 ± 0.1", "unit": "mPa·s"}
    ]},
    {"molecule": "CCOC=O", "note": "[ethyl methanoate]", "values": [
      {"measurement": "viscosity", "setting": "[1]", "value": "0.4 ± 0.1", "unit": "mPa·s"}
    ]},
    {"molecule": "CCOC=O", "note": "[ethyl methanoate] + CCCCn1cc[n+](C)c1.F[B-](F)(F)F", "values": [
      {"measurement": "mass density", "setting": "[2]; w2 = 0", "value": "928.48 ± 0.52", "unit": "kg/m3"},
      {"measurement": "viscosity", "setting": "[2]; w2 = 0", "value": "0.4 ± 0.1", "unit": "mPa·s"},
      {"measurement": "mass density", "setting": "[2]; w2 = 0.1384", "value": "961.2 ± 0.72", "unit": "kg/m3"},
      {"measurement": "viscosity", "setting": "[2]; w2 = 0.1384", "value": "0.6 ± 0.1", "unit": "mPa·s"},
      {"measurement": "mass density", "setting": "[2]; w2 = 0.254", "value": "989.2 ± 1", "unit": "kg/m3"},
      {"measurement": "viscosity", "setting": "[2]; w2 = 0.254", "value": "1 ± 0.1", "unit": "mPa·s"},
      {"measurement": "mass density", "setting": "[2]; w2 = 0.4306", "value": "1040.81 ± 1.9", "unit": "kg/m3"},
      {"measurement": "viscosity", "setting": "[2]; w2 = 0.4306", "value": "2 ± 0.1", "unit": "mPa·s"},
      {"measurement": "mass density", "setting": "[2]; w2 = 0.5721", "value": "1082.16 ± 3", "unit": "kg/m3"},
      {"measurement": "viscosity", "setting": "[2]; w2 = 0.5721", "value": "3.8 ± 0.1", "unit": "mPa·s"},
      {"measurement": "mass density", "setting": "[2]; w2 = 0.6278", "value": "1098.26 ± 3.5", "unit": "kg/m3"},
      {"measurement": "viscosity", "setting": "[2]; w2 = 0.6278", "value": "5.1 ± 0.2", "unit": "mPa·s"},
      {"measurement": "mass density", "setting": "[2]; w2 = 0.6729", "value": "1111.27 ± 4", "unit": "kg/m3"},
      {"measurement": "viscosity", "setting": "[2]; w2 = 0.6729", "value": "6.5 ± 0.2", "unit": "mPa·s"},
      {"measurement": "mass density", "setting": "[2]; w2 = 0.7159", "value": "1123.69 ± 4.4", "unit": "kg/m3"},
      {"measurement": "viscosity", "setting": "[2]; w2 = 0.7159", "value": "8.5 ± 0.2", "unit": "mPa·s"},
      {"measurement": "mass density", "setting": "[2]; w2 = 0.751", "value": "1133.73 ± 4.8", "unit": "kg/m3"},
      {"measurement": "viscosity", "setting": "[2]; w2 = 0.751", "value": "10.6 ± 0.3", "unit": "mPa·s"},
      {"measurement": "mass density", "setting": "[2]; w2 = 0.7847", "value": "1143.34 ± 5.2", "unit": "kg/m3"},
      {"measurement": "viscosity", "setting": "[2]; w2 = 0.7847", "value": "13.3 ± 0.4", "unit": "mPa·s"},
      {"measurement": "mass density", "setting": "[2]; w2 = 0.8199", "value": "1153.32 ± 5.7", "unit": "kg/m3"},
      {"measurement": "viscosity", "setting": "[2]; w2 = 0.8199", "value": "16.9 ± 0.5", "unit": "mPa·s"},
      {"measurement": "mass density", "setting": "[2]; w2 = 0.8756", "value": "1169.16 ± 6.5", "unit": "kg/m3"},
      {"measurement": "viscosity", "setting": "[2]; w2 = 0.8756", "value": "26.6 ± 0.7", "unit": "mPa·s"},
      {"measurement": "mass density", "setting": "[2]; w2 = 0.9231", "value": "1183.78 ± 7.2", "unit": "kg/m3"},
      {"measurement": "viscosity", "setting": "[2]; w2 = 0.9231", "value": "43.7 ± 1.3", "unit": "mPa·s"},
      {"measurement": "mass density", "setting": "[2]; w2 = 0.9647", "value": "1198.3 ± 7.9", "unit": "kg/m3"},
      {"measurement": "viscosity", "setting": "[2]; w2 = 0.9647", "value": "69 ± 2.3", "unit": "mPa·s"}
    ]}
  ]
}
